Patent US20230173098A1, “NANOPARTICLE COMPLEX FOR ORAL ADMINISTRATION AND USES THEREOF” (IUCF-HYU (Industry-University Cooperation Foundation …, priority 2021, published 2023)

What was measured:
[1] = Surface charge measurement (Zetasizer Nano ZS); type: physicochemical; conditions: mean±SEM, n=3, in mV (unit assumed)
[2] = test system: Caco-2 cell monolayer; type: in vitro ADME, human
Procedure: Specifically, small intestine […] cells (Caco-2) were inoculated onto a Transwell insert with a diameter of 6.5 mm and a pore size of […] (seeding density: 2×10^4 cells/insert; Corning, Inc., Corning, N.Y., USA).
After the Caco-2 were incubated for approximately 2 to 3 weeks in a CO2 incubator, trans epithelial electrical resistance (TEER) was measured using a voltmeter (EVOM^2; World Precision Instruments, Sarasota, Fla., USA) to confirm tight junctions. In this case, the TEER value […] was used for the assay. […] During the treatment, TEER values were measured at each designated time, and the results are illustrated in FIG. 18.
Pretreated-Lf/Ce6-AuNP-Lf was used to examine passive transport excluding lactoferrin receptor (LfR)-mediated transport.
Referring to this, Lf pretreatment (pretreated-Lf) was performed to saturate LfR expressed in the Caco-2 cell monolayer, and two hours after Lf pretreatment (pretreated-Lf), the medium was exchanged with a Ce6-AuNP-Lf-containing medium.

[3] = Hydrophobic assay (water/octanol phase transition, absorbance at 400 nm and 671 nm); type: physicochemical; conditions: dissolved in DW, octanol added
[4] = test system: brain tumor cells (U87MG); assay: Uptake into brain tumor cells (confocal, FACS); type: cell-based, human; conditions: Ce6 equivalent 2.5 μM, 18 hours
Procedure: Next, DAPI mounting medium (Vector Laboratories, Inc., Burlingame, Calif., USA) was used and the intracellular Ce6 fluorescence was observed under a confocal microscope (TCS SP5, Leica, Germany).
Meanwhile, flow cytometry (FACS Calibur™; BD Biosciences, Franklin Lakes, N.J.) was used to quantify the intracellular Ce6 fluorescence. […] After washing three times with PBS, the cells were detached with trypsin/EDTA, centrifuged for 3 minutes at 1000 rpm, and then analyzed with FACS.

[5] = Photobleaching of Ce6 fluorescence under PDT laser (671 nm); type: physicochemical; conditions: 10 minutes PDT laser 671 nm; Ce6 equivalent 2.5 μM in ethanol
Procedure: In this case, each sample (Ce6 equivalent concentration of 2.5 μM) was dissolved in ethanol and irradiated with a PDT laser (MRL-III-671, 671±1 nm, China) for 10 minutes, and then the photobleaching of Ce6 fluorescence (λ excitation/λ emission=400 nm/671 nm) of each sample was measured according to laser irradiation time, and the results are illustrated in FIG. 10.

[6] = test system: brain tumor (U87MG) cells; assay: Phototherapy of brain tumor cells: viability, Annexin V/PI apoptosis, DCFH-DA ROS; type: cell-based, human; conditions: PDT+PTT, 2.5 minutes each
Procedure: Cell viability was measured with an EZ-Cytox kit.
Meanwhile, the intracellular ROS generation by laser irradiation was measured using the fluorescent probe DCFH-DA according to the manufacturer's instructions. Annexin V-DY-634/PI apoptosis was used to evaluate apoptosis. That is, brain tumor (U87MG) cells were suspended in 400 μL binding buffer, and then stained with Annexin V-DY-634 (5 μL) at 2 to 8° C. for 15 minutes. Next, PI (5 μL) was added and the cells were incubated for 5 min. In this case, brain tumor (U87MG) cells were analyzed using FACS.

Chlorin e6 [Ce6]
surface charge [1]: −9.4±4.3 | transmittance / amount transported across the barrier [2]: about 47.6% | hydrophobicity [3]: hydrophobic | amount of uptake into the cells (FACS, intracellular Ce6 fluorescence) [4]: 43.6±2.2 | Ce6 fluorescence after PDT laser irradiation (photobleaching) [5]: 57.0±5.6% | apoptotic cell population (Annexin-V+/PI+) [6]: 22.0%
